According to PubChem BioAssay (NCI):
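Cultured in 96-well plates, cells were exposed to test compound for 48 hours across five concentrations. GI50: concentration for 50% inhibition of growth. TGI is the concentration that stops growth completely.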

How the values were obtained:
Assay in all cases: inhibition of tumour cell growth, NCI panel, 48 h
[1] = system: HS 578T breast
[2] = system: UO-31 renal
[3] = system: 786-0 renal
[4] = system: NCI-H522 lung
[5] = system: SN12C renal
[6] = system: M14 melanoma
[7] = system: HCC-2998 colon
[8] = system: NCI/ADR-RES ovarian
[9] = system: DU-145 prostate
[10] = system: HCT-116 colon
[11] = system: NCI-H23 lung
[12] = system: MDA-MB-435
[13] = system: SNB-19 CNS
[14] = system: RXF 393 renal
[15] = system: HT29 colon
[16] = system: HOP-62 NSCLC
[17] = system: SK-MEL-2 melanoma
[18] = system: U251 CNS
[19] = system: NCI-H460 lung
[20] = system: OVCAR-8 ovarian
[21] = system: T-47D breast
[22] = system: MOLT-4 leukemia
[23] = system: MDA-MB-231 breast
[24] = system: ACHN renal
[25] = system: SK-MEL-5 melanoma
[26] = system: COLO 205 colon
[27] = system: HL-60(TB) leukemia
[28] = system: OVCAR-3 ovarian
[29] = system: UACC-62 melanoma
[30] = system: OVCAR-5 ovarian
[31] = system: SF-295 CNS
[32] = system: MCF7 breast
[33] = system: SK-OV-3 ovarian
[34] = system: IGROV1 ovarian
[35] = system: UACC-257 melanoma
[36] = system: SF-268 CNS
[37] = system: TK-10 renal
[38] = system: KM12 colon
[39] = system: PC-3 prostate
[40] = system: SK-MEL-28 melanoma
[41] = system: A549 NSCLC
[42] = system: HCT-15 colon
[43] = system: BT-549 breast
[44] = system: EKVX NSCLC
[45] = system: K-562 leukemia
[46] = system: HOP-92 NSCLC
[47] = system: SW-620 colon
[48] = system: CAKI-1 renal
[49] = system: RPMI-8226 leukemia
[50] = system: CCRF-CEM leukemia
[51] = system: SF-539 CNS
[52] = system: A498 renal
[53] = system: LOX IMVI melanoma
[54] = system: NCI-H226 lung
[55] = system: SR leukemia
[56] = system: SNB-75 CNS
[57] = system: MALME-3M melanoma
[58] = system: OVCAR-4 ovarian

## CCCCCC[C@@H](C)Nc1nc2ccccc2c2occc12
[1]
  GI50: 16.5 µM
  TGI: 40.5 µM
[2]
  GI50: 2.05 µM
  TGI: 17.2 µM
[3]
  GI50: 14.3 µM
  TGI: 27.8 µM
[4]
  GI50: 1.83 µM
  TGI: 13.3 µM
[5]
  GI50: 12.8 µM
  TGI: 25.4 µM
[6]
  GI50: 11.2 µM
  TGI: 23.2 µM
[7]
  GI50: 9.35 µM
  TGI: 21.5 µM
[8]
  GI50: 10.7 µM
  TGI: 22.6 µM
[9]
  GI50: 9.79 µM
  TGI: 21.5 µM
[10]
  GI50: 4.87 µM
  TGI: 18.1 µM
[11]
  GI50: 1 µM
  TGI: 6.97 µM
[12]
  GI50: 15.5 µM
  TGI: 40.2 µM
[13]
  GI50: 17.7 µM
  TGI: 50.1 µM
[14]
  GI50: 13.9 µM
  TGI: 34.4 µM
[15]
  GI50: 14.5 µM
  TGI: 43.5 µM
[16]
  GI50: 14.8 µM
  TGI: 28 µM
[17]
  GI50: 1.32 µM
  TGI: 20.5 µM
[18]
  GI50: 11.7 µM
  TGI: 23.9 µM
[19]
  GI50: 4.19 µM
  TGI: > 100 µM
[20]
  GI50: 20.7 µM
  TGI: > 100 µM
[21]
  GI50: 7.24 µM
  TGI: 23.2 µM
[22]
  GI50: 20.9 µM
  TGI: > 100 µM
[23]
  GI50: 10.8 µM
  TGI: 22.7 µM
[24]
  GI50: 15.5 µM
  TGI: 28.8 µM
[25]
  GI50: 2.89 µM
  TGI: 18 µM
[26]
  GI50: 21.2 µM
  TGI: > 100 µM
[27]
  GI50: 22.4 µM
  TGI: 62.9 µM
[28]
  GI50: 13.5 µM
  TGI: 38.2 µM
[29]
  GI50: 13.2 µM
  TGI: 25.9 µM
[30]
  GI50: 14 µM
  TGI: 27.4 µM
[31]
  GI50: 1.99 µM
  TGI: 19.5 µM
[32]
  GI50: 10.5 µM
  TGI: > 100 µM
[33]
  GI50: 15.7 µM
  TGI: 32.2 µM
[34]
  GI50: 0.0871 µM
  TGI: 11.5 µM
[35]
  GI50: 4.67 µM
  TGI: 24 µM
[36]
  GI50: 14.7 µM
  TGI: 38.7 µM
[37]
  GI50: 10 µM
  TGI: 23.6 µM
[38]
  GI50: 14 µM
  TGI: 34.4 µM
[39]
  GI50: 22.9 µM
  TGI: 71.6 µM
[40]
  GI50: 18.5 µM
  TGI: 36.5 µM
[41]
  GI50: 19.4 µM
  TGI: 78.2 µM
[42]
  GI50: 10.1 µM
  TGI: 21.6 µM
[43]
  GI50: 3.05 µM
  TGI: 18.2 µM
[44]
  GI50: 0.39 µM
  TGI: 5 µM
[45]
  GI50: 19.9 µM
  TGI: > 100 µM
[46]
  GI50: 11.2 µM
  TGI: 27.2 µM
[47]
  GI50: 11.2 µM
  TGI: 26.5 µM
[48]
  GI50: 13.6 µM
  TGI: 32.1 µM
[49]
  GI50: 1.47 µM
  TGI: > 100 µM
[50]
  GI50: 12.2 µM
  TGI: 39.2 µM
[51]
  GI50: 10.5 µM
  TGI: 22.5 µM
[52]
  GI50: 18.6 µM
  TGI: 35.1 µM
[53]
  GI50: 13.9 µM
  TGI: 26.9 µM

## CCN(CC)CCN1C(=O)C2C3C(=O)CC(C)(CC3C)C2C1=O (configuration not stated)
[1]
  GI50: > 100 µM
  TGI: > 100 µM
[2]
  GI50: > 100 µM
  TGI: > 100 µM
[3]
  GI50: > 100 µM
  TGI: > 100 µM
[4]
  GI50: > 100 µM
  TGI: > 100 µM
[5]
  GI50: > 100 µM
  TGI: > 100 µM
[6]
  GI50: > 100 µM
  TGI: > 100 µM
[7]
  GI50: > 100 µM
  TGI: > 100 µM
[8]
  GI50: > 100 µM
  TGI: > 100 µM
[9]
  GI50: > 100 µM
  TGI: > 100 µM
[10]
  GI50: > 100 µM
  TGI: > 100 µM
[11]
  GI50: > 100 µM
  TGI: > 100 µM
[12]
  GI50: > 100 µM
  TGI: > 100 µM
[13]
  GI50: > 100 µM
  TGI: > 100 µM
[14]
  GI50: > 100 µM
  TGI: > 100 µM
[15]
  GI50: > 100 µM
  TGI: > 100 µM
[16]
  GI50: > 100 µM
  TGI: > 100 µM
[54]
  GI50: > 100 µM
  TGI: > 100 µM
[17]
  GI50: > 100 µM
  TGI: > 100 µM
[18]
  GI50: > 100 µM
  TGI: > 100 µM
[55]
  GI50: > 100 µM
  TGI: > 100 µM
[20]
  GI50: > 100 µM
  TGI: > 100 µM
[56]
  GI50: > 100 µM
  TGI: > 100 µM
[21]
  GI50: > 100 µM
  TGI: > 100 µM
[22]
  GI50: > 100 µM
  TGI: > 100 µM
[23]
  GI50: > 100 µM
  TGI: > 100 µM
[24]
  GI50: > 100 µM
  TGI: > 100 µM
[25]
  GI50: > 100 µM
  TGI: > 100 µM
[26]
  GI50: > 100 µM
  TGI: > 100 µM
[27]
  GI50: > 100 µM
  TGI: > 100 µM
[29]
  GI50: > 100 µM
  TGI: > 100 µM
[30]
  GI50: > 100 µM
  TGI: > 100 µM
[31]
  GI50: > 100 µM
  TGI: > 100 µM
[33]
  GI50: > 100 µM
  TGI: > 100 µM
[34]
  GI50: > 100 µM
  TGI: > 100 µM
[35]
  GI50: > 100 µM
  TGI: > 100 µM
[36]
  GI50: > 100 µM
  TGI: > 100 µM
[37]
  GI50: > 100 µM
  TGI: > 100 µM
[38]
  GI50: > 100 µM
  TGI: > 100 µM
[39]
  GI50: > 100 µM
  TGI: > 100 µM
[41]
  GI50: > 100 µM
  TGI: > 100 µM
[42]
  GI50: > 100 µM
  TGI: > 100 µM
[43]
  GI50: > 100 µM
  TGI: > 100 µM
[44]
  GI50: > 100 µM
  TGI: > 100 µM
[45]
  GI50: > 100 µM
  TGI: > 100 µM
[46]
  GI50: > 100 µM
  TGI: > 100 µM
[47]
  GI50: > 100 µM
  TGI: > 100 µM
[48]
  GI50: > 100 µM
  TGI: > 100 µM
[57]
  GI50: > 100 µM
  TGI: > 100 µM
[50]
  GI50: > 100 µM
  TGI: > 100 µM
[51]
  GI50: > 100 µM
  TGI: > 100 µM
[52]
  GI50: > 100 µM
  TGI: > 100 µM
[58]
  GI50: > 100 µM
  TGI: > 100 µM
[53]
  GI50: > 100 µM
  TGI: > 100 µM
